# Source: patent publication US10548911B2, “Small molecule anti-scarring agents” (UNIVERSITY OF ROCHESTER, priority 2014, dated 2020)
# “Also recorded” adds a separate entry of the source.
# Experiments:
# [1] = test system: TGFβ induced Smad-luc activity; experiment: Smad-luc reporter in human orbital fibroblasts electroporated with control or MKK6(glu) plasmid; format: cell-based; conditions: 250 nM, 24 hours
# Method: Plasmid DNA was introduced into human fibroblasts by electroporation. Plasmids were electroporated with an Amaxa nucleofector (program U-025) into 1×10^6 cells. The pcDNA3-flag MKK6(glu) plasmid was obtained from Addgene (plasmid 13518, from Roger Davis' lab). After transfection cells were cultured for 12-24 hours and culture medium was subsequently changed to treatment conditions.
# To further test if salinomycin targets the p38 pathway to block myofibroblast formation, a plasmid encoding a mutant MKK6 (pcDNA3-flag MKK6(glu)) protein was used. MKK6 phosphorylates and thus activates p38 in response to extracellular signals such as TGFβ or other environmental stresses. The MKK6(glu) protein, which harbors glutamate mutations at amino acid residues serine 207 and threonine 211, is constitutively active and thus phosphorylates p38 irrespective of signal (Raingeaud et al., “MKK3- and MKK6-regulated gene expression is mediated by the p38 mitogen-activated protein kinase signal transduction pathway,” Mol. Cell. Biol. 16:1247-1255 (1996), which is hereby incorporated by reference in its entirety). Thus, if salinomycin is blocking the p38 signaling pathway, MKK6(glu) should overcome the effect of salinomycin. MKK6(glu) was first tested using the SBE4-TK-luc reporter plasmid. The luciferase reporter plasmid was introduced into human fibroblasts along with the MKK6(glu) plasmid or a control plasmid (pcDNA3-GFP). Cells were then treated with vehicle, TGFβ or TGFβ plus 250 nM salinomycin. After 24 hours, luciferase activity was measured (FIG. 6A). […] MKK6(glu) was further tested to assess whether it could attenuate the ability of salinomycin to inhibit p38 phosphorylation. Control or MKK6(glu) plasmids were introduced into human fibroblasts by electroporation and then cells were treated with TGFβ for 24 hours. Following treatment, cells were analyzed for flag-MKK6(glu) expression and phospho-p38 by Western blot (FIG. 6B). […] Samples were analyzed for expression of flag-MKK6(glu), αSMA, calponin and β-tubulin by Western blot (FIG. 6C).
# [2] = test system: TGFβ-induced luciferase activity; experiment: Spectrum collection small molecule screen with TGFβ-dependent SBE-luciferase HEK293FT reporter cell line; format: cell-based, human; conditions: HEK293FT-luc reporter line
# Text: The minimal thymidine kinase promoter was amplified by PCR with the following forward and reverse primers, of which the forward primer contained four tandem Smad binding elements (SBE):
# Restriction sites in the primers are underlined. The resultant PCR product was TOPO cloned (Invitrogen) and the correct insert was verified by DNA sequencing. The construct was digested with SacI-HindIII and the SBEx4-TK insert was purified and ligated with the pGL4.15 vector (Promega). Clones were verified by restriction digest and then tested for TGFβ responsiveness in transient transfections of 293FT cells. […] Clones were selected by treatment with 200 μg/ml hygromycin. 20 clones were selected and screened for TGFβ-induced luciferase activity. One clone that was robustly responsive was subsequently used in the small molecule screen.
# Excessive scarring results from the formation of too many myofibroblasts and the production of too much extracellular matrix material such as collagen. Since TGFβ drives the formation of myofibroblasts in part through activating the Smad pathway, a reporter construct was designed to serve as a measure of TGFβ-induced Smad activity (FIG. 1A). Four tandem Smad binding elements (SBE) were inserted upstream of the minimal thymidine kinase promoter. The SBEx4-TK promoter was inserted into the pGL4.15 vector which contains a destabilized firefly luciferase gene and the hygromycin resistance gene. The pSBEx4-TK-luc-Hygro plasmid was then introduced into HEK293FT cells by lipofection. Stable clones were generated and screened for TGFβ induced luciferase activity. One clone was selected that consistently gave a 15 to 20-fold induction of luciferase activity when cells were treated with TGFβ for 24 hours (FIG. 1B).
# To find compounds that inhibit TGFβ activity and thus may be novel anti-scarring compounds, the Spectrum collection of 2,300 small molecules was screened with the cell line. […] Salinomycin, an antibiotic produced from Streptomyces albus is used as coccidiostat agent in animal feed (Knirschova et al., “Multiple regulatory genes in the salinomycin biosynthetic gene cluster of Streptomyces albus CCM 4719,” Folia Microbiologica 52:359-365 (2007), which is hereby incorporated by reference in its entirety). […] Thus, further investigation was made to assess the use of salinomycin as an anti-scarring agent.
smiles,measurement,setting,value
CC[C@@H](C(=O)[C@@H](C)[C@@H](O)[C@H](C)[C@@H]1O[C@@H]([C@@H](CC)C(=O)O)CC[C@@H]1C)[C@H]1O[C@]2(C=C[C@@H](O)[C@]3(CC[C@@](C)([C@H]4CC[C@](O)(CC)[C@H](C)O4)O3)O2)[C@H](C)C[C@@H]1C [salinomycin],TGFβ-induced Smad-luc (luciferase) activity,[1]; constitutively active MKK6(glu) plasmid,attenuated the effect of salinomycin; also recorded: unable to block TGFβ-induced luciferase activity
same,TGFβ-induced Smad-luc (luciferase) activity,[1]; control (GFP) plasmid,completely blocked TGFβ-induced luciferase activity
same,TGFβ-induced Smad-luc (luciferase) activity,"[1]; control (GFP) plasmid, listed as Salinomycin",blocked TGFβ induced Smad-luc activity
same,"inhibition of TGFβ-induced luciferase activity, initial screen",[2],blocked TGFβ-induced luciferase activity; also recorded: particularly potent at inhibiting luciferase activity
